Measured values as given in ChEMBL document CHEMBL5653615 (J Biol Chem, 2013).

Experiments:
[1] = target: Casein kinase I isoform epsilon (Homo sapiens) (UniProt P49674); experiment: Inhibition of human CK1epsilon at 18.6 nM by HotSpot assay relative to control
[2] = target: T1, Discoidin domain-containing receptor 2 (Homo sapiens) (UniProt Q16832); experiment: Inhibition of human DDR2 at 18.6 nM by HotSpot assay relative to control
T1 sequence (whole entry): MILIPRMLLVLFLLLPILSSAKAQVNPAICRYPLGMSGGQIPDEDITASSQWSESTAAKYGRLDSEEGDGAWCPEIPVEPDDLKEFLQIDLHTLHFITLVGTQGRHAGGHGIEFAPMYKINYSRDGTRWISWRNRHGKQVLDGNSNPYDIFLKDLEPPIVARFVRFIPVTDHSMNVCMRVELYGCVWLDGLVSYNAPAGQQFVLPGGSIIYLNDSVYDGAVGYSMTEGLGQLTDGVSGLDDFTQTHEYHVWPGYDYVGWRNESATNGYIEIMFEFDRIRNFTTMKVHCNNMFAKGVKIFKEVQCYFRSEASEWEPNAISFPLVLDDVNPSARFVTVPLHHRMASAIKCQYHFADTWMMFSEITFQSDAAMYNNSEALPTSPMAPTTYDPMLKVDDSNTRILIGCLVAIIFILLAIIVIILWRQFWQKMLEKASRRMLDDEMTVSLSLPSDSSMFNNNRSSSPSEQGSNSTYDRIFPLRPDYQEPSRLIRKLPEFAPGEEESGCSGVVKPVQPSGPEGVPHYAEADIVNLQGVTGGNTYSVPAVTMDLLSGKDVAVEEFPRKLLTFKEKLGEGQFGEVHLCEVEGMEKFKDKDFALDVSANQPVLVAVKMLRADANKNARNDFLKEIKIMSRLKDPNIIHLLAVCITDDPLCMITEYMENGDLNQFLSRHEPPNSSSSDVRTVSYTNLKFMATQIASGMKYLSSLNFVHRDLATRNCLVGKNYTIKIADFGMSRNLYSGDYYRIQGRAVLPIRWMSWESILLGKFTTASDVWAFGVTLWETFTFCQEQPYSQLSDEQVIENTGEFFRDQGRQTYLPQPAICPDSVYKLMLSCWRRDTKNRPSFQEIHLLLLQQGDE

[3] = target: Protein kinase C beta type (Homo sapiens) (UniProt P05771); experiment: Inhibition of human PKCb2 at 18.6 nM by HotSpot assay relative to control
[4] = target: T2, Dual specificity mitogen-activated protein kinase kinase 6 (Homo sapiens) (UniProt P52564); experiment: Inhibition of human MKK6 at 18.6 nM by HotSpot assay relative to control
T2 sequence (whole entry): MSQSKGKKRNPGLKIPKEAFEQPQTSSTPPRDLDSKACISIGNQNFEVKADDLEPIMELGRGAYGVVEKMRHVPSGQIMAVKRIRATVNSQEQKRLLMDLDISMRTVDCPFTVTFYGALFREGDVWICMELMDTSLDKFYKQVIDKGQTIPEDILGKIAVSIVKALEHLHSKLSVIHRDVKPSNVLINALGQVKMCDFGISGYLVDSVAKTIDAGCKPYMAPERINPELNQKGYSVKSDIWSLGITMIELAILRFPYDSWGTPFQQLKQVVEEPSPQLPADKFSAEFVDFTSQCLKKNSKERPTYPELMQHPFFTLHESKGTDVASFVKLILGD

[5] = target: T3, Testis-specific serine/threonine-protein kinase 1 (Homo sapiens) (UniProt Q9BXA7); experiment: Inhibition of human TSSK1 at 18.6 nM by HotSpot assay relative to control
T3 sequence (whole entry): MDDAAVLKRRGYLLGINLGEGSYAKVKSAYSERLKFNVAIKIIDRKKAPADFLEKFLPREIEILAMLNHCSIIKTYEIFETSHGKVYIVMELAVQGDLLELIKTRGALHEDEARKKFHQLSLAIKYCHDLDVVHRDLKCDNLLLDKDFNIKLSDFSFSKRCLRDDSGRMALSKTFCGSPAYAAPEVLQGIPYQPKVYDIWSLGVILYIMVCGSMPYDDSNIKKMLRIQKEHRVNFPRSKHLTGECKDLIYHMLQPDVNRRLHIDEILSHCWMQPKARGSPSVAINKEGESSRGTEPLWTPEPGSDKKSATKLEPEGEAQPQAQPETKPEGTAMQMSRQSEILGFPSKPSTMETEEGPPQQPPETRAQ

[6] = target: T4, Serine/threonine-protein kinase A-Raf (Homo sapiens) (UniProt P10398); experiment: Inhibition of human ARAF at 18.6 nM by HotSpot assay relative to control
T4 sequence (whole entry): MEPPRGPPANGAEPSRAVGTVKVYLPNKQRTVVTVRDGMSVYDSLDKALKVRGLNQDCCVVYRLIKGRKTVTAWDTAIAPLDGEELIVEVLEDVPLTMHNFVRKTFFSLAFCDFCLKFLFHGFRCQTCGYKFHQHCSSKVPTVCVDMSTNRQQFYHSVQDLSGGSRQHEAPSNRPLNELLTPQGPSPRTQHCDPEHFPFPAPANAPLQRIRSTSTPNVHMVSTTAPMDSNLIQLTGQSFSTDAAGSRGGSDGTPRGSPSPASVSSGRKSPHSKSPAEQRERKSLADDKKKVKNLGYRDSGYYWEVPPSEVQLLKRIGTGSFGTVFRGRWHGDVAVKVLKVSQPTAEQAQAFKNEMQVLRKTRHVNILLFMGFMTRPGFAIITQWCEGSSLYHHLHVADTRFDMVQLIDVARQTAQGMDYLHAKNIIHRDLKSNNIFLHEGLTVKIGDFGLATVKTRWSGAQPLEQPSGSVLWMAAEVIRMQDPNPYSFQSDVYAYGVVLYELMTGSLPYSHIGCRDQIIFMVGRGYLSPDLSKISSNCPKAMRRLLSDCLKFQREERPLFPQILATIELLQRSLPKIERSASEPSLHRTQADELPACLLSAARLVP

[7] = target: Serine/threonine-protein kinase 16 (Homo sapiens) (UniProt O75716); experiment: Inhibition of human STK16 at 1.82 nM by HotSpot assay relative to control
[8] = target: Ephrin type-A receptor 5 (Homo sapiens) (UniProt P54756); experiment: Inhibition of human EPHA5 at 1.82 nM by HotSpot assay relative to control
[9] = target: Wee1-like protein kinase (Homo sapiens) (UniProt P30291); experiment: Inhibition of human WEE1 at 1.82 nM by HotSpot assay relative to control
Sequence of Wee1-like protein kinase (Homo sapiens) (P30291 whole entry, looked up): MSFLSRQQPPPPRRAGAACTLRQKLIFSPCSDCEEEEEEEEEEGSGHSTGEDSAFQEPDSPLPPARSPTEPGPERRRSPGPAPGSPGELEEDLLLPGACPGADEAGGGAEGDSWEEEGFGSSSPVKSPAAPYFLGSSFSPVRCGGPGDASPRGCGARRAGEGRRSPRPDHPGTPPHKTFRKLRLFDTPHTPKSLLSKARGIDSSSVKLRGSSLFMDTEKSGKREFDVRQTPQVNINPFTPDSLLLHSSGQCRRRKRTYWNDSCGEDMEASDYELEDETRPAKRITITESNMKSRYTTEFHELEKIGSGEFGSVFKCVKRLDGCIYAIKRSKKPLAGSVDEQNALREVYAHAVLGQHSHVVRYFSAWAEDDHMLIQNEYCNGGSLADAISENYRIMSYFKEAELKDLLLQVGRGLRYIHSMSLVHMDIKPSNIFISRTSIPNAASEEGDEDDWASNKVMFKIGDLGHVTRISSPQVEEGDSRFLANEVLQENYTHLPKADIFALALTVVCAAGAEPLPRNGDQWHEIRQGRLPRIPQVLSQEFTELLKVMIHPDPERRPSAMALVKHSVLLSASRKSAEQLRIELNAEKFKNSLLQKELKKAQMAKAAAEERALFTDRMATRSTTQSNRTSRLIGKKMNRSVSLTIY

Sequence of Protein kinase C beta type (Homo sapiens) (P05771 2-671 limits assumed): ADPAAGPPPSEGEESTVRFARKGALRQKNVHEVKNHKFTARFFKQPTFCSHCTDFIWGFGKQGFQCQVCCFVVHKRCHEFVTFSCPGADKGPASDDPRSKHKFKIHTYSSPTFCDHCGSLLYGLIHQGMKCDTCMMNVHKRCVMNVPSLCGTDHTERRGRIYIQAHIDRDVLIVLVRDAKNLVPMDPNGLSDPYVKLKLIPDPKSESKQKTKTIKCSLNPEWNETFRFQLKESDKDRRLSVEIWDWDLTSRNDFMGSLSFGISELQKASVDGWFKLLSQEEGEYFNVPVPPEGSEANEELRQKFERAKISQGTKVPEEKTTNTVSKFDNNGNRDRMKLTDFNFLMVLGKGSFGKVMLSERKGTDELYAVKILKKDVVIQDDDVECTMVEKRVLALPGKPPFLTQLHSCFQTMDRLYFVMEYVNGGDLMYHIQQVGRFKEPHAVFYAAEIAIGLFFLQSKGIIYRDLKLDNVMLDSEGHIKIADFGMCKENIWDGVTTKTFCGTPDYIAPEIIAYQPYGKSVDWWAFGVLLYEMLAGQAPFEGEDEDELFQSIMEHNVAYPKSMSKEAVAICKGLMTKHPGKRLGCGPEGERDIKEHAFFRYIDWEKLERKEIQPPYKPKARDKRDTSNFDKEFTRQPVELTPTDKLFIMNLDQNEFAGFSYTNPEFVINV
Sequence of Serine/threonine-protein kinase 16 (Homo sapiens) (O75716 whole entry): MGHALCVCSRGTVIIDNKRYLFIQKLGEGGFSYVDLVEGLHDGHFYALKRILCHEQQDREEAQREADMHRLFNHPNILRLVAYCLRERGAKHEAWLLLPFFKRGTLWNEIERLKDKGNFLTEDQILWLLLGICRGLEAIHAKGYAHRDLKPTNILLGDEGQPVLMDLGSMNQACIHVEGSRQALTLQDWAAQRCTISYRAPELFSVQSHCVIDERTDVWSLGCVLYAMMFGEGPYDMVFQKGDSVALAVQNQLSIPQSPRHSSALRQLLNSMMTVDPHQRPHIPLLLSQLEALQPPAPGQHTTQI
Sequence of Ephrin type-A receptor 5 (Homo sapiens) (P54756 whole entry): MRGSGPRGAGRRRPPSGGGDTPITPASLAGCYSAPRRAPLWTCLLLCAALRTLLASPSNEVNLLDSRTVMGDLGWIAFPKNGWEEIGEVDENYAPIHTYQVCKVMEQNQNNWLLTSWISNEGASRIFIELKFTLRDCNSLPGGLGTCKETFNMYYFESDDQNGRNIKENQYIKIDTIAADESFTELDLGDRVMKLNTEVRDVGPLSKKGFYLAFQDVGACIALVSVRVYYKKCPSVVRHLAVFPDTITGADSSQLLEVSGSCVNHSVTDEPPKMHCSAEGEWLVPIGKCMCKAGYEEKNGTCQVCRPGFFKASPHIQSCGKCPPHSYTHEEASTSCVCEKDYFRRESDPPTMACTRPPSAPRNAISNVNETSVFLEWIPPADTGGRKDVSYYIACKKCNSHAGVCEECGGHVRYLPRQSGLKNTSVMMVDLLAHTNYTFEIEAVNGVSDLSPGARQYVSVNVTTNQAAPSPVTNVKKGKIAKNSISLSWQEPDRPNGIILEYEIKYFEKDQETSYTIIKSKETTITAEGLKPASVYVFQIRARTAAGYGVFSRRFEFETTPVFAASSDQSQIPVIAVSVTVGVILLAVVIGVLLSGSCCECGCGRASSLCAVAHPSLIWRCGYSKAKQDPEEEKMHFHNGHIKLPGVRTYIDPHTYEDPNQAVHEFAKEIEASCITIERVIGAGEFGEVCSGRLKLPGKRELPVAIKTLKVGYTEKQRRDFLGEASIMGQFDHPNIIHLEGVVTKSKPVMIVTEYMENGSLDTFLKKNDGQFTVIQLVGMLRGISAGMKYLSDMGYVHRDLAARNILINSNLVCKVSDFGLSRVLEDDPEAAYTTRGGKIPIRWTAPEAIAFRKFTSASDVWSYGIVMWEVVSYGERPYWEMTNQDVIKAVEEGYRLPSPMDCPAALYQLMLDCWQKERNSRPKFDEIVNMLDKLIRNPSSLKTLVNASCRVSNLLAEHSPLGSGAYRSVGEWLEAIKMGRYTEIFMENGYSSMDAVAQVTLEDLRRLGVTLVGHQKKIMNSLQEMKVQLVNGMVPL
Sequence of Casein kinase I isoform epsilon (Homo sapiens) (P49674 whole entry, looked up, the tested form may be a part, canonical isoform): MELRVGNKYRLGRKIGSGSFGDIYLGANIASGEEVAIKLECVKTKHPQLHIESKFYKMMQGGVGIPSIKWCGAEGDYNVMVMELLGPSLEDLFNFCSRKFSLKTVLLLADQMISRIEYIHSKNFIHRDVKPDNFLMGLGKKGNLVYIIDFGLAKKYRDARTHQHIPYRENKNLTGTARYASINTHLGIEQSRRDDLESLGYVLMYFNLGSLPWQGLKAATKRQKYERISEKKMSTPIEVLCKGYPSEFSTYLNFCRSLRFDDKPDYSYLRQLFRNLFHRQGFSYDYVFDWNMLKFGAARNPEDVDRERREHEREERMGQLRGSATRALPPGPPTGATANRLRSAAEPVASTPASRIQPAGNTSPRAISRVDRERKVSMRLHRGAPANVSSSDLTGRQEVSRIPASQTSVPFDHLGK

inhibition [1] [%] | inhibition [2] [%] | inhibition [3] [%] | inhibition [4] [%] | inhibition [5] [%] | inhibition [6] [%] | inhibition [7] [%] | inhibition [8] [%] | inhibition [9] [%] | SMILES
0.64 | -2.4 | -7.92 | 1.97 | -3.16 | 5.16 | – | – | – | C[C@]1(O)C[C@@H](c2nc(-c3ccc4ccc(-c5ccccc5)nc4c3)c3c(N)nccn32)C1
– | – | – | – | – | – | -1.36 | -1.69 | 1.94 | C[C@@]1(C(=O)Nc2ccc(F)nc2)CCCN1c1nc(Nc2cc(C3CC3)n[nH]2)c2cccn2n1
